According to US10253002B2, “Compounds and methods of treating infections” (Neoculi Pty Ltd., priority 2013, dated 2019):
Values after ≈ are worked out from the molar mass of the structure shown. Values joined by “and” are separate entries in the source; they are usually repeats but may differ in a detail not shown here. Equal entries are not always repeated.

Tests used:
[1] = system: MRSA; test: Broth microdilution MIC, Example 7 (NCL812 and analogues); format: cell-based, Staphylococcus aureus; details: for activity against MRSA among analogues: MIC testing, two MRSA strains; for MRSA: bioassay ranking
Summary of the method: (§1)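 CLSI broth microdilution against two MRSA and two VRE strains, tested in duplicate with a third run if results differed by more than one two-fold dilution.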

[2] = system: VRE; test: as above; format: cell-based, Enterococcus spp.; details: for activity against VRE among analogues: MIC testing, two VRE strains; for VRE: bioassay ranking
Summary of the method: as §1

[3] = system: Escherichia coli; test: as above; format: cell-based; details: 24 hours
[4] = system: Pseudomonas aeruginosa; test: as above; format: cell-based; details: 24 hours
[5] = Bioassay ranking of the analogues tested; details: M + R (MRSA and VRE combined)
[6] = MRSA 1, 24 hours, duplicate lines per compound
[7] = MRSA 2, 24 hours, duplicate lines per compound
[8] = VRE 1, 24 hours, duplicate lines per compound
[9] = VRE 2, 24 hours, duplicate lines per compound
[10] = E. coli, duplicate lines per compound
[11] = P. aeruginosa, duplicate lines per compound
[12] = isolate MRSA 1, 24 hours, 1st and 2nd replicate rows
[13] = isolate MRSA 2, 24 hours, 1st and 2nd replicate rows
[14] = isolate VRE 1, 24 hours, 1st and 2nd replicate rows
[15] = isolate VRE 2, 24 hours, 1st and 2nd replicate rows

| Compound | activity against MRSA among analogues [1] | MIC (μg/ml) at 24 hours, MRSA 1 [1, 6] | MIC (μg/ml) at 24 hours, MRSA 2 [1, 7] | MRSA [1] [µg/mL] | activity against VRE among analogues [2] | MIC (μg/ml) at 24 hours, VRE 1 [2, 8] | MIC (μg/ml) at 24 hours, VRE 2 [2, 9] | VRE [2] [µg/mL] | MIC (μg/ml) at 24 hours, E. coli [3, 10] [µg/mL] | MIC (μg/ml) at 24 hours, P. aeruginosa [4, 11] [µg/mL] | M + R [5] [µg/mL] | also measured |
| --- | --- | --- | --- | --- | --- | --- | --- | --- | --- | --- | --- | --- |
| C/C(=N\NC(=N)N/N=C/c1ccc(Cl)cc1)c1ccc(Cl)cc1.Cl [NCL081] | greatest activity | 4 µg/mL | 8 µg/mL and 4 µg/mL | 5 | greatest activity | 1 µg/mL | 4 µg/mL | 2.5 | >128 | >128 | 3.75 |  |
| Cl.N=C(NN=Cc1ccc(Cl)cc1)NN=Cc1ccccc1F [NCL088] | greatest activity | 16 µg/mL and 8 µg/mL | 8 µg/mL | 10 | greatest activity | 4 µg/mL | 4 µg/mL | 4 | >128 | >128 | 7 |  |
| Nc1nc(N/N=C/c2ccccc2O)cc(N/N=C/c2ccccc2O)n1 [NCL202] | greatest activity |  |  | 10 | greatest activity |  |  | 8 |  |  | 9 | MIC (μg/ml) at 24 hours, MRSA 1 ([1]; MRSA 1, 24 hours): 8 µg/mL (≈ 22 µM); MIC (μg/ml) at 24 hours, MRSA 2 ([1]; MRSA 2, 24 hours): 8 µg/mL (≈ 22 µM); MIC (μg/ml) at 24 hours, VRE 1 ([2]; VRE 1, 24 hours): 8 µg/mL (≈ 22 µM); MIC (μg/ml) at 24 hours, VRE 2 ([2]; VRE 2, 24 hours): 8 µg/mL (≈ 22 µM); MIC (μg/ml) at 24 hours, E. coli ([3]; E. coli): >128 µg/mL; MIC (μg/ml) at 24 hours, P. aeruginosa ([4]; P. aeruginosa): >128 µg/mL |
| Cl.N=C(N/N=C/c1ccc(F)cc1)N/N=C/c1ccc(F)cc1 [NCL021] | greatest activity |  |  | 16 | greatest activity |  |  | 8 |  |  | 12 | MIC (μg/ml) at 24 hours, MRSA 1 [1, 12]: 16 µg/mL; MIC (μg/ml) at 24 hours, MRSA 2 [1, 13]: 16 µg/mL; MIC (μg/ml) at 24 hours, VRE 1 [2, 14]: 8 µg/mL; MIC (μg/ml) at 24 hours, VRE 2 [2, 15]: 8 µg/mL; MIC (μg/ml) at 24 hours, E. coli ([3]; 1st and 2nd replicate rows): >128 µg/mL; MIC (μg/ml) at 24 hours, P. aeruginosa ([4]; 1st and 2nd replicate rows): >128 µg/mL |
| Cl.N=C(N/N=C/c1ccc(Cl)cc1)N/N=C/c1ccc(Cl)cc1Cl [NCL074] | greatest activity | 16 µg/mL | 16 µg/mL | 16 | greatest activity | 2 µg/mL and 1 µg/mL | 8 µg/mL and 4 µg/mL | 3.75 | >128 | >128 | 9.875 |  |
| CN(C)c1ccc(C=NNC(=N)NN=Cc2ccc(N(C)C)cc2)cc1.Cl [NCL113] | greatest activity | 16 µg/mL | 8 µg/mL | 12 | greatest activity | 8 µg/mL | 16 µg/mL | 12 | >128 | >128 | 12 |  |
| Cc1cccc(C=NNC(=N)NN=Cc2cccc(C)c2)c1.Cl [NCL040] | greatest activity |  |  | 8 | greatest activity |  |  | 8 |  |  | 8 | MIC (μg/ml) at 24 hours, MRSA 1 [1, 12]: 8 µg/mL; MIC (μg/ml) at 24 hours, MRSA 2 [1, 13]: 8 µg/mL; MIC (μg/ml) at 24 hours, VRE 1 [2, 14]: 8 µg/mL; MIC (μg/ml) at 24 hours, VRE 2 [2, 15]: 8 µg/mL; MIC (μg/ml) at 24 hours, E. coli ([3]; 1st and 2nd replicate rows): >128 µg/mL; MIC (μg/ml) at 24 hours, P. aeruginosa ([4]; 1st and 2nd replicate rows): >128 µg/mL |
